Source: paper PMC10670708, “A New Synthetic Curcuminoid Displays Antitumor Activities in Metastasized Melanoma” (Cells, 2023)
Where “and” joins values, the source holds several entries; their conditions need not be identical. Equal entries are not always repeated. Entries after “also recorded” stand apart in the source; their conditions may differ.

Assays:
[1] = tested on: B16F10 murine melanoma cells; assay: Cytotoxicity assay (resazurin), B16F10; assay type: cell-based; conditions: for IC50: Mus musculus, B16-F10, 48 h, resazurin
Experimental: (§1) 3T3 murine fibroblasts (ATCC # CRL-1658), B16F10 murine melanoma cells (ATCC # CRL-6475) and RAW 264.7 murine macrophages (ATCC # TIB-71) were cultured in Dulbecco’s modified eagle’s high-glucose medium (Sigma Aldrich, Darmstadt, Germany) supplemented with 10% fetal bovine serum (FBS), 1% streptomycin–penicillin (Gibco, Darmstadt, Germany) and 1% L-glutamine (Gibco, Germany). AML12 murine hepatocytes (ATCC # CRL-2254) were cultivated in Dulbecco’s modified eagle’s F-12 Ham media supplemented as described above plus 10 µg/mL insulin, 5.5 µg/mL transferrin, 5 ng/mL selenium (all from Thermo Fisher Scientific, Braunschweig, Germany) and 40 ng/mL dexamethasone (Sigma Aldrich). All cells were maintained in a humidified incubator at 37 °C under 5% CO2. Cells were passaged when they reached semi-confluency. For detachment, cells were thoroughly rinsed with Dulbecco’s phosphate-buffered saline (PBS) without calcium and magnesium (Sigma Aldrich) and enzymatically treated using TrypLE™ Express (1×) (Gibco, Germany). FBS-containing medium was added to stop enzymatic activity.
(§2) A total of 1000 cells were seeded per well in 100 µL medium (for details, see above) using 96-well plates (Greiner Bio-On, Frickenhausen, Germany). After 24 h, curcumin, garcinol (both from Sigma Aldrich), MePip-SF5 and isogarcinol (synthesized as described previously) were added to the wells at concentrations ranging from 0.5 to 64 µM (6 wells per concentration step) and incubated at […] for 48 h. For the preparation of the compounds, drugs were dissolved in DMSO at a concentration of 40 mM for stock solutions and freshly diluted with PBS to a working stock of 4 mM on the day of the experiment.
(§3) After the incubation, resazurin (Sigma Aldrich) was dissolved in fully supplemented media and added to a final concentration of 25 µg/mL per well. After incubation for 3 h, the absorbance of resorufin (7-hydroxy-3H-phenoxazin-3-one), the enzymatic product of resazurin, in the wells was measured on an Infinite M200Pro spectrofluorometer (TECAN, Männedorf, Switzerland) at an excitation of 570 nm. Based on the determined dose–response curves, IC50 concentrations were calculated by Prism 10 (GraphPad Software Version 10.1.0, La Jolla, CA, USA) using nonlinear regression analysis after conversion of concentrations to logarithmic scale.

3T3 murine fibroblasts = assay: Cytotoxicity assay (resazurin), 3T3; assay type: cell-based; conditions: 3T3 fibroblasts; for IC50: Mus musculus, Fibroblast, 48 h, resazurin
Experimental: as §1, §2, §3

AML12 murine hepatocytes = assay: Cytotoxicity assay (resazurin), AML12; assay type: cell-based; conditions: Mus musculus, 48 h
Experimental: as §1, §2, §3

[2] = tested on: RAW 264.7 murine macrophages; assay: Cytotoxicity assay (resazurin), RAW 264.7; assay type: cell-based; conditions: Mus musculus, RAW264.7, 48 h
Experimental: as §1, §2, §3

healthy C57BL/6 mice = assay: In vivo toxicity and dose finding; conditions: for maximum tolerated single dose without signs of acute toxicity: intraperitoneal, twice weekly, escalating doses, n = 2, weight loss and abnormal behavior
Experimental: Groups of 2 mice (C57BL/6) were challenged with increasing doses of MePip-SF5 or isogarcinol. Stock solutions of drugs (40 mM in DMSO, corresponding to 24 mg/mL for isogarcinol and 21 mg/mL for MePip-SF5) were freshly dissolved in PBS, yielding a total injection volume of 100 µL. Prepared drug solutions were intraperitoneally injected twice weekly (Monday and Friday) over 4 weeks. Drug doses were doubled each week, starting with 15 mg/kg body weight. Physical appearance and body weight were closely monitored. Toxic dose was defined as body weight loss of ≥10% in one week, abnormal behavior or when mice lost ≥5% of their body weight in two consecutive weeks.

[3] = tested on: B16F10 pulmonary melanoma metastases; assay: In vivo antitumor therapy, pulmonary metastasis of B16F10 melanoma; parameters: species or system mice (C57BL/6); conditions: for pulmonary tumor load / antitumor effect: MePip-SF5 60 mg/kg, isogarcinol 15 mg/kg i.p. days 8, 11, 14, day 16, vs vehicle
Experimental: Eight-weeks-old female C57BL/6 mice (body weight ~20 g) were purchased from Charles River (Sulzfeld, Germany) and kept under 12 h light–dark cycles at 25 °C and 40–60% humidity with humane care. Mice had access to regular chow and water ad libitum. Pulmonary metastases were generated by tail vein injection. A total of 500,000 B16F10 cells were resuspended in sterile 100 µL PBS (cell viability > 90%) and injected into the tail vein of the mice while animals were immobilized in a mouse restrainer (G&P Kunststofftechnik, Kassel, Germany). At 8, 11 and 14 days after melanoma cell injection, groups of mice (n = 10) received an intraperitoneal injection of isogarcinol (15 mg/kg) or MePip-SF5 (60 mg/kg) of 200 µL, while non-treated control mice received equal volumes of PBS. At day 16, mice were sacrificed, and organs (lungs, liver, kidneys and spleen) and blood were sampled for further analysis. Tumor nodules of the left and right lobes of the lungs were macroscopically counted. Pictures of the lungs were taken with a Stemi 2000-C binocular (Carl Zeiss, Jena, Germany), and a mm scale was pictured to create a mm grid in ImageJ software (latest version 1.54f (National Institute of Health, Bethesda, MD, USA). In addition to surface lesion counts, tumors were categorized by their size into categories of <1 mm and <2 mm. Afterwards, both lobes were formalin fixed, paraffin embedded and sectioned (5 µm) to assess intrapulmonary tumor burden. Sections were stained with ready-to-use hematoxylin and eosin staining solution (Carl Roth, Karlsruhe, Germany) for 5 min at room temperature and washed in distilled water and 0.5% acetic acid. Per mouse, lungs were cut into 4–5 parts and then microtome thin-sectioned ([…]). Then, 4 lung sections were randomly selected and analyzed. Sections were tile-scanned with a Leica microscope (DMi8). Pictures were binarized and the percentage of healthy vs. tumor lung tissue measured by ImageJ software using an adjusted threshold setting. Data are expressed as means ± SD per mouse (n = 10 treated group; and n = 11 per control group).

C57BL/6 mice = assay: Safety laboratory and biometric parameters in treated metastasis-bearing mice; assay type: in vivo; conditions: for tolerability at the applied doses: MePip-SF5 60 mg/kg, isogarcinol 15 mg/kg i.p. ×3; for safety laboratory parameters (LDH, creatinine, urea, ALT, AST, GLDH, γ-GT, Bilirubin, ALP): serum, day 16
Experimental: (§4) At 8, 11 and 14 days after melanoma cell injection, groups of mice (n = 10) received an intraperitoneal injection of isogarcinol (15 mg/kg) or MePip-SF5 (60 mg/kg) of 200 µL, while non-treated control mice received equal volumes of PBS. At day 16, mice were sacrificed, and organs (lungs, liver, kidneys and spleen) and blood were sampled for further analysis.

[4] = tested on: M2-polarized bone-marrow-derived macrophages; assay: Phenotype modulation of M2-polarized BMDM (RT-qPCR); assay type: cell-based, mice (C57BL/6); conditions: M2-polarized primary macrophages; for Ccl3 expression: half of RAW IC50
Experimental: Bone marrow was extracted from 8-weeks-old C57BL/6 mice (Charles River, Erkrat, Germany) and matured into primary macrophages in the presence of macrophage colony-stimulating factor (M-CSF). Briefly, mice were sacrificed by cervical dislocation, and the femurs and tibias were isolated under sterile conditions and rinsed with cold PBS supplemented with 2% heat-inactivated FBS and 1% penicillin/streptomycin using a 21G needle and a 10 mL syringe (Braun, Kronberg, Germany). Cell suspensions were passed through a 70 µm cell strainer (Milteny, Bergisch Gladbach, Germany). The remaining red blood cells were lysed with red cell lysis buffer (eBioscience, San Diego, CA, USA) and the resulting bone marrow cells resuspended in fully supplemented Iscove’s modified Dulbecco’s medium (Gibco) plus 25 ng/mL M-CSF (from a 1 mg/mL M-CSF stock solution in PBS, M-CSF, ImmunoTools, Friesoythe, Germany). Five million cells were cultured on bacterial culture plates (Sigma-Aldrich, Germany) in a total volume of 10 mL. After 4 days, half of the medium was substituted by fresh medium to yield primary macrophages after an additional 4 days.
For M2-type polarization, BMDM medium was exchanged for fresh medium containing 20 ng/mL IL-4 and 20 ng/mL IL-13 (ImmunoTools, Germany), and cells were incubated for 24 h. […] IC50 concentrations were calculated as described above for the cytotoxicity assays.
(§5) Total RNA was extracted via phenol extraction from cells using RNA-Solv® reagent (VWR International GmbH, Hessen, Germany) as described in the manual of the manufacturer. RNA was purified with the Monarch® Total RNA Miniprep Kit (New England BioLabs GmbH, Frankfurt am Main, Germany) following the manual of the manufacturer. For RNA extraction from lung tissue, the accessory lobe of the right lung was mechanically homogenized in 1 mL RNA-Solv® reagent using the Tissue Lyser II (Qiagen, Venlo, The Netherlands). A 100 µL amount of the suspension was mixed with 900 µL RNA-Solv® reagent, and total RNA extraction was performed using the Monarch® Total RNA Miniprep Kit as described in the manual of the manufacturer.
(§6) RNA content of the extracted solution was measured optically using the Infinite® 200 PRO spectrofluorometer (TECAN, Switzerland), and 25 ng RNA per reaction was used in the following analysis.
(§7) Transcript levels of β-Actin were used to normalize data and to control for RNA integrity. Samples were amplified with the Luna® Universal One-Step RT-qPCR Kit (New England BioLabs GmbH, Frankfurt am Main) and analyzed using a Step One Plus sequence amplification system from LifeTechnologies (Darmstadt, Germany). For normalization, results were expressed as the ratio of the copy numbers of the target gene divided by the number of copies of the housekeeping gene (β-Actin) within individual PCR runs.

[5] = tested on: gemcitabine-resistant pancreatic cancer patients; parameters: method as in PMID 20859741; conditions: cited from earlier work
[6] = tested on: metastatic lung tissue transcripts; assay: RT-qPCR of transcripts in lung tissue of treated mice; assay type: in vivo, mice (C57BL/6); conditions: MePip-SF5 60 mg/kg, vs controls
Experimental: as §5, §6, §7, §4

[7] = tested on: various solid tumor cell lines (including colon cancer and glioblastoma cells); conditions: exceeded the activities of previous curcuminoids; cited from earlier work

CC(C)=CC[C@H]1C[C@@]23C[C@@H](CC=C(C)C)C(C)(C)[C@@](CC=C(C)C)(C(=O)C(C(=O)c4ccc(O)c(O)c4)=C2OC1(C)C)C3=O [isogarcinol]
stronger activity than original substance garcinol [1]: 40% and ~ 40% | IC50 [1]: 2.1 µM | IC50 (3T3 murine fibroblasts): 3.2 µM | IC50 (AML12 murine hepatocytes): 4.3 µM | IC50 [2]: 2.3 µM | maximum tolerated single dose without signs of acute toxicity (healthy C57BL/6 mice): 15 mg/kg | pulmonary tumor load / antitumor effect [3]: ineffective; also recorded: failed to show activity | tolerability at the applied doses (C57BL/6 mice): well tolerated | safety laboratory parameters (LDH, creatinine, urea, ALT, AST, GLDH, γ-GT, Bilirubin, ALP) (C57BL/6 mice): remained normal | Ccl3 expression [4]: increased

COc1cc(/C=C/C(=O)CC(=O)/C=C/c2ccc(O)c(OC)c2)ccc1O [curcumin]
IC50 [1]: 13.8 µM | IC50 (3T3 murine fibroblasts): 6.8 µM | IC50 (AML12 murine hepatocytes): 10.8 µM | IC50 [2]: 5.5 µM | 1-year survival rate ([5]; 95% confidence interval 4.4–41.4%): 19% | median survival ([5]; 95% confidence interval 109–223 days): 161 days

CN1C/C(=C\c2ccc(S(F)(F)(F)(F)F)cc2)C(=O)/C(=C/c2ccc(S(F)(F)(F)(F)F)cc2)C1 [MePip-SF5, (E)-1-methyl-3,5-bis(4-pentafluorothiobenzylidene)-4-piperidone]
IC50 [1]: 2.8 µM | times more active than parent drug curcumin (3T3 murine fibroblasts; ratio of IC50): 10 × | IC50 (3T3 murine fibroblasts): 0.7 µM | IC50 (AML12 murine hepatocytes): 2.3 µM | IC50 [2]: 1.3 µM | maximum tolerated single dose without signs of acute toxicity (healthy C57BL/6 mice): 60 mg/kg | could be dosed more highly than isogarcinol (healthy C57BL/6 mice; ratio of tolerated doses): 8 × | proportion of healthy lung tissue (morphometric, thin sections) ([3]; 60 mg/kg i.p. days 8, 11, 14, vs PBS-treated controls): significantly higher | pulmonary tumor load / antitumor effect [3]: significantly (p < 0.05) lower; also recorded: robust antitumor effect | numbers of macroscopic tumor nodules of size ≤ 1 mm in the lungs ([3]; i.p. days 8, 11, 14, sacrifice day 16, vs controls and isogarcinol-treated mice): significantly (p < 0.05) lower | tolerability at the applied doses (C57BL/6 mice): well tolerated | safety laboratory parameters (LDH, creatinine, urea, ALT, AST, GLDH, γ-GT, Bilirubin, ALP) (C57BL/6 mice): remained normal | Bax expression in lungs [6]: remained unchanged | Bcl2 expression in lungs [6]: remained unchanged | Hif1a expression in lungs [6]: did not affect | Il6 expression in lungs [6]: did not affect | Ki67 expression in lungs [6]: trend of reduced expression | Bub1 expression in lungs ([6]; 60 mg/kg): significantly (p < 0.05) reduced; also recorded: significantly downregulated | Ccl3 expression in lungs ([6]; 60 mg/kg): significantly (p < 0.05) reduced | Tnfa expression in lungs ([6]; 60 mg/kg): significantly (p < 0.05) reduced | Inos expression [4]: no effect | Ccl2 expression ([4]; effective dose of 0.6 µM): increased | Ccl3 expression [4]: upregulated | antiproliferative activity [7]: high antiproliferative activity

C=C(C)[C@@H](CC=C(C)C)C[C@@]12C[C@@H](CC=C(C)C)C(C)(C)[C@@](CC=C(C)C)(C(=O)C(C(=O)c3ccc(O)c(O)c3)=C1O)C2=O [garcinol, reference compound]
IC50 [1]: 3.1 µM | IC50 (3T3 murine fibroblasts): 8.7 µM | IC50 (AML12 murine hepatocytes): 10.1 µM | IC50 [2]: 3.8 µM | Ccl3 expression [4]: not
